Patent US20190029974A1, “METHODS FOR TREATING SKIN DISORDERS AND CONDITIONS UTILIZING HAPTENS” (RXi Pharmaceuticals Corporation, priority 2015, published 2019)

Key:
[1] = Stability of 0.4% DPCP solutions in solvents at 50° C., reverse phase HPLC on a C18 column; assay type: physicochemical
Method: (§1) The compatibility and solubility of DPCP was determined in both isopropyl myristate (IPM) as well as Polysorbate 80 (PS80). […] Next, the stability of DPCP in these solvents was determined. A solution of 0.4% DPCP in isopropyl myristate and a solution of 0.4% DPCP in Polysorbate 80 was placed at 50° C. for two weeks. The stability of DPCP in these solvents was determined using reverse phase HPLC on a C18 column.
For the development of a gel, the stability of DPCP was determined in both Ethanol (ETOH) and Isopropanol (IPA) was determined (0.4% DPCP solutions in each solvent was placed at 50° C. for two weeks; FIG. 3. All solutions contained 0.1% BHT). […] However, DPCP was stable in IPA. The stability of DPCP in the above solvents was determined using reverse phase HPLC on a C18 column.

[2] = Solubility of DPCP in solvents for gel and ointment formulations; assay type: physicochemical
Method: as §1

stability of DPCP in PS80 ([1]; 0.4% DPCP in Polysorbate 80, 50° C., two weeks): some degradation | stability of DPCP in ETOH ([1]; 0.4% DPCP in ethanol, 0.1% BHT, in the presence of citric acid, 50° C., two weeks): Some degradation | stability of DPCP in IPA ([1]; 0.4% DPCP in isopropanol, 0.1% BHT, 50° C., two weeks): stable | stability of DPCP in IPM ([1]; 0.4% DPCP in isopropyl myristate, 50° C., two weeks): stable | effect of BHT on degradation of DPCP in PS80 ([1]; PS80 with butylated hydroxytoloune (BHT)): reduce the amount of degradation | solubility of DPCP in PS80 ([2]; Polysorbate 80 (PS80)): highly soluble | solubility of DPCP in IPM ([2]; isopropyl myristate (IPM)): about 1.1 % w/w
Compound: O=c1c(-c2ccccc2)c1-c1ccccc1 [DPCP, Diphenylcyclopropenone]
